From PMC5218480 (PLoS ONE, 2017)

Tested on: MV-4-11 cells
Assay: Gene expression microarray analysis (Affymetrix PrimeView) and GSEA
Format: cell-based, human
Parameters: RFU PODN (11730768_x_at) / Fold change /veh PODN (11730768_x_at) / RFU LINC00158 (11744669_a_at) / Fold change /veh LINC00158 (11744669_a_at) / RFU DUSP10 (11751237_a_at) / Fold change /veh DUSP10 (11751237_a_at) / RFU ID3 (11757404_x_at) / Fold change /veh ID3 (11757404_x_at) / RFU PLEKHG5 (11737974_s_at) / Fold change /veh PLEKHG5 (11737974_s_at) / RFU LRRC4B (11730491_at) / Fold change /veh LRRC4B (11730491_at) / RFU GIMAP4 (11747438_a_at) / Fold change /veh GIMAP4 (11747438_a_at) / RFU KRT8 (11758183_x_at) / Fold change /veh KRT8 (11758183_x_at) / RFU CNN1 (11734310_a_at) / Fold change /veh CNN1 (11734310_a_at) / RFU VPS37D (11726825_at) / Fold change /veh VPS37D (11726825_at) / RFU C10orf10 (11716522_x_at) / Fold change /veh C10orf10 (11716522_x_at) / RFU KIR2DL2 /// KIR2DL4 /// KIR2DL5A /// KIR2DL5B /// KIR2DS1 /// KIR2DS2 /// KIR2DS3 /// KIR2DS4 /// KIR3DL3 /// KIR3DL3 /// KIR3DS1 (11738374_at) / Fold change /veh KIR2DL2 /// KIR2DL4 /// KIR2DL5A /// KIR2DL5B /// KIR2DS1 /// KIR2DS2 /// KIR2DS3 /// KIR2DS4 /// KIR3DL3 /// KIR3DL3 /// KIR3DS1 (11738374_at) / RFU C1QL1 (11718748_at) / Fold change /veh C1QL1 (11718748_at) / RFU TMPRSS4 (11747572_a_at) / Fold change /veh TMPRSS4 (11747572_a_at) / RFU HAMP (11756126_x_at) / Fold change /veh HAMP (11756126_x_at) / RFU RNFT2 (11725882_a_at) / Fold change /veh RNFT2 (11725882_a_at) / RFU NR4A2 (11747474_a_at) / Fold change /veh NR4A2 (11747474_a_at) / RFU ABCC12 (11746883_a_at) / Fold change /veh ABCC12 (11746883_a_at) / RFU TMEM136 (11760407_x_at) / Fold change /veh TMEM136 (11760407_x_at) / RFU CLDN22 /// WWC2 (11732394_at) / Fold change /veh CLDN22 /// WWC2 (11732394_at) / RFU HLA-DPB1 (11760878_x_at) / Fold change /veh HLA-DPB1 (11760878_x_at) / RFU SPINT1 (11716480_a_at) / Fold change /veh SPINT1 (11716480_a_at) / RFU GAP43 (11754022_s_at) / Fold change /veh GAP43 (11754022_s_at) / RFU A4GNT (11735810_at) / Fold change /veh A4GNT (11735810_at) / RFU PRB3 (11715151_x_at) / Fold change /veh PRB3 (11715151_x_at) / RFU TUBB4B (11761932_at) / Fold change /veh TUBB4B (11761932_at) / RFU CAPN14 (11732068_a_at) / Fold change /veh CAPN14 (11732068_a_at) / RFU TMCC2 (11721928_a_at) / Fold change /veh TMCC2 (11721928_a_at) / RFU IRGQ (11745062_a_at) / Fold change /veh IRGQ (11745062_a_at) / RFU FAM174B (11720279_a_at) / Fold change /veh FAM174B (11720279_a_at) / RFU TMPRSS4 (11748680_a_at) / Fold change /veh TMPRSS4 (11748680_a_at) / RFU FAM212B (11763350_a_at) / Fold change /veh FAM212B (11763350_a_at) / RFU PLEKHG5 (11743358_a_at) / Fold change /veh PLEKHG5 (11743358_a_at) / RFU ZSCAN30 (11745921_a_at) / Fold change /veh ZSCAN30 (11745921_a_at) / RFU CMKLR1 (11741424_a_at) / Fold change /veh CMKLR1 (11741424_a_at) / RFU LOC101060620 /// MAPK8IP1 (11723275_at) / Fold change /veh LOC101060620 /// MAPK8IP1 (11723275_at) / RFU SPTSSB (11747773_x_at) / Fold change /veh SPTSSB (11747773_x_at) / RFU PRSS12 (11739890_at) / Fold change /veh PRSS12 (11739890_at) / RFU BIN1 (11741810_x_at) / Fold change /veh BIN1 (11741810_x_at) / RFU WNT11 (11732464_a_at) / Fold change /veh WNT11 (11732464_a_at) / RFU C10orf10 (11716521_a_at) / Fold change /veh C10orf10 (11716521_a_at) / RFU C5orf56 (11738089_at) / Fold change /veh C5orf56 (11738089_at) / RFU CYB561 (11721691_x_at) / Fold change /veh CYB561 (11721691_x_at) / RFU ANKRD19P (11752326_a_at) / Fold change /veh ANKRD19P (11752326_a_at) / RFU OR2T12 /// OR2T33 /// OR2T8 (11738714_s_at) / Fold change /veh OR2T12 /// OR2T33 /// OR2T8 (11738714_s_at) / RFU VCAN (11748164_a_at) / Fold change /veh VCAN (11748164_a_at) / RFU JSRP1 (11732532_at) / Fold change /veh JSRP1 (11732532_at) / RFU KRTAP10-11 (11738290_x_at) / Fold change /veh KRTAP10-11 (11738290_x_at) / RFU MYO3A (11730013_a_at) / Fold change /veh MYO3A (11730013_a_at) / RFU EBF3 (11725865_a_at) / Fold change /veh EBF3 (11725865_a_at) / RFU CAMK2N1 (11719241_x_at) / Fold change /veh CAMK2N1 (11719241_x_at) / RFU C5orf56 (11738088_a_at) / Fold change /veh C5orf56 (11738088_a_at) / RFU OLFML3 (11715873_a_at) / Fold change /veh OLFML3 (11715873_a_at) / RFU LOC100653217 /// NTM (11731650_a_at) / Fold change /veh LOC100653217 /// NTM (11731650_a_at) / RFU MAPK11 (11762145_a_at) / Fold change /veh MAPK11 (11762145_a_at) / RFU FIZ1 (11724087_x_at) / Fold change /veh FIZ1 (11724087_x_at) / RFU OASL (11726364_x_at) / Fold change /veh OASL (11726364_x_at) / RFU SOX15 (11748057_x_at) / Fold change /veh SOX15 (11748057_x_at) / RFU CD79A (11719716_a_at) / Fold change /veh CD79A (11719716_a_at) / RFU HIST1H1D (11736915_at) / Fold change /veh HIST1H1D (11736915_at) / RFU CASKIN2 (11723855_a_at) / Fold change /veh CASKIN2 (11723855_a_at) / RFU LOC730098 (11760151_x_at) / Fold change /veh LOC730098 (11760151_x_at) / RFU OR4N2 (11742367_at) / Fold change /veh OR4N2 (11742367_at) / RFU PRRT2 (11749266_a_at) / Fold change /veh PRRT2 (11749266_a_at) / RFU SNX32 (11753110_a_at) / Fold change /veh SNX32 (11753110_a_at) / RFU CDHR5 (11726645_a_at) / Fold change /veh CDHR5 (11726645_a_at) / RFU RCAN1 (11760418_a_at) / Fold change /veh RCAN1 (11760418_a_at) / RFU FAM167A (11723789_a_at) / Fold change /veh FAM167A (11723789_a_at) / RFU FAM26E (11764081_at) / Fold change /veh FAM26E (11764081_at) / RFU ISYNA1 (11749810_s_at) / Fold change /veh ISYNA1 (11749810_s_at) / RFU ACY1 (11761880_at) / Fold change /veh ACY1 (11761880_at) / RFU 11764098_at / Fold change /veh 11764098_at / RFU SAMD14 (11745864_x_at) / Fold change /veh SAMD14 (11745864_x_at) / RFU NPB (11741838_a_at) / Fold change /veh NPB (11741838_a_at) / RFU TMPRSS6 (11731388_a_at) / Fold change /veh TMPRSS6 (11731388_a_at) / RFU KRTAP10-2 (11738614_at) / Fold change /veh KRTAP10-2 (11738614_at) / RFU ARHGAP8 /// PRR5-ARHGAP8 (11727945_x_at) / Fold change /veh ARHGAP8 /// PRR5-ARHGAP8 (11727945_x_at) / RFU KRTAP5-7 /// NADSYN1 (11734609_at) / Fold change /veh KRTAP5-7 /// NADSYN1 (11734609_at) / RFU RASL12 (11751679_a_at) / Fold change /veh RASL12 (11751679_a_at) / RFU CDKN2B (11736163_a_at) / Fold change /veh CDKN2B (11736163_a_at) / RFU PRF1 (11729649_at) / Fold change /veh PRF1 (11729649_at) / RFU, ZNF638 /// ZNF638-IT1 / Fold change vs veh, ZNF638 /// ZNF638-IT1 / RFU, PANK3 / Fold change vs veh, PANK3 / RFU, SH3YL1 / Fold change vs veh, SH3YL1 / RFU, ZEB2 / Fold change vs veh, ZEB2 / RFU, NRIP1 / Fold change vs veh, NRIP1 / RFU, PTTG1IP / Fold change vs veh, PTTG1IP / RFU, CAPN2 / Fold change vs veh, CAPN2 / RFU, MED14 / Fold change vs veh, MED14 / RFU, SNORA58 / Fold change vs veh, SNORA58 / RFU, C1orf63 / Fold change vs veh, C1orf63 / RFU, LRRFIP1 / Fold change vs veh, LRRFIP1 / RFU, NDUFAF7 / Fold change vs veh, NDUFAF7 / RFU, SLC12A2 / Fold change vs veh, SLC12A2 / RFU, IBTK / Fold change vs veh, IBTK / RFU, ESF1 / Fold change vs veh, ESF1 / Fold change vs veh, TMEM50B / RFU, TAOK1 / Fold change vs veh, TAOK1 / RFU, ACBD3 / Fold change vs veh, ACBD3 / RFU, TMA16 / Fold change vs veh, TMA16 / RFU, RWDD3 / Fold change vs veh, RWDD3 / RFU, BCAT1 / Fold change vs veh, BCAT1 / RFU, EDEM3 / Fold change vs veh, EDEM3 / RFU, TMEM33 / Fold change vs veh, TMEM33 / RFU, WDR75 / Fold change vs veh, WDR75 / RFU, AHCTF1 / Fold change vs veh, AHCTF1 / RFU, TFRC / Fold change vs veh, TFRC / RFU, ZDHHC17 / Fold change vs veh, ZDHHC17 / RFU, NOM1 / Fold change vs veh, NOM1 / RFU, ARL8B / Fold change vs veh, ARL8B / RFU, ZBTB11 / Fold change vs veh, ZBTB11 / RFU, TAMM41 / Fold change vs veh, TAMM41 / RFU, KIAA1704 /// LOC100996395 / Fold change vs veh, KIAA1704 /// LOC100996395 / RFU, ING1 / Fold change vs veh, ING1 / RFU, TRMT61B / Fold change vs veh, TRMT61B / RFU, FUBP3 / Fold change vs veh, FUBP3 / RFU, TP53 / Fold change vs veh, TP53 / RFU, TNKS2 / Fold change vs veh, TNKS2 / RFU, ZFP14 / Fold change vs veh, ZFP14 / RFU, ACTR2 / Fold change vs veh, ACTR2 / RFU, PPP3R1 / Fold change vs veh, PPP3R1 / RFU, PIK3R1 / Fold change vs veh, PIK3R1 / RFU, HNRNPA1 / Fold change vs veh, HNRNPA1 / RFU, RNF170 / Fold change vs veh, RNF170 / RFU, ZNF28 / Fold change vs veh, ZNF28 / RFU, RNGTT / Fold change vs veh, RNGTT / RFU, OGT / Fold change vs veh, OGT / RFU, BRD1 / Fold change vs veh, BRD1 / RFU, MARS / Fold change vs veh, MARS / RFU, ZNF655 / Fold change vs veh, ZNF655 / RFU, FAHD1 / Fold change vs veh, FAHD1 / RFU, BDP1 / Fold change vs veh, BDP1 / RFU, LRRCC1 / Fold change vs veh, LRRCC1 / RFU, ARID1A / Fold change vs veh, ARID1A / RFU, ZNF146 / Fold change vs veh, ZNF146 / RFU, ZNF330 / Fold change vs veh, ZNF330 / RFU, GPN3 / Fold change vs veh, GPN3 / RFU, C9orf123 / Fold change vs veh, C9orf123 / RFU, N4BP2L2 / Fold change vs veh, N4BP2L2 / RFU, ARFIP1 / Fold change vs veh, ARFIP1 / RFU, FAM179B / Fold change vs veh, FAM179B / RFU, BCL10 / Fold change vs veh, BCL10 / RFU, UHRF1BP1L / Fold change vs veh, UHRF1BP1L / RFU, BET1 / Fold change vs veh, BET1 / RFU, CNOT2 / Fold change vs veh, CNOT2 / RFU, ZNF268 / Fold change vs veh, ZNF268 / Fold change vs veh, ZNF507 / RFU, DGCR2 / Fold change vs veh, DGCR2 / RFU, WDSUB1 / Fold change vs veh, WDSUB1 / Fold change vs veh, HSP90B1 /// MIR3652 / RFU, ADSS / Fold change vs veh, ADSS / RFU, GK / Fold change vs veh, GK / RFU, ZNF148 / Fold change vs veh, ZNF148 / RFU, TAF9 / Fold change vs veh, TAF9 / RFU, SLC1A5 / Fold change vs veh, SLC1A5 / RFU, SLMO2 / Fold change vs veh, SLMO2 / RFU, ABCC4 / Fold change vs veh, ABCC4 / RFU, LOC101060439 /// RAP1B / Fold change vs veh, LOC101060439 /// RAP1B / RFU, RFX7 / Fold change vs veh, RFX7 / RFU, GTPBP10 / Fold change vs veh, GTPBP10 / RFU, CNEP1R1 / Fold change vs veh, CNEP1R1 / RFU, BIVM-ERCC5 /// ERCC5 / Fold change vs veh, BIVM-ERCC5 /// ERCC5 / RFU, ILF3 / Fold change vs veh, ILF3 / RFU 11762660_at / Fold change /veh 11762660_at / RFU VCAN (11757783_s_at) / Fold change /veh VCAN (11757783_s_at) / RFU DDX43 (11728927_at) / Fold change /veh DDX43 (11728927_at) / RFU KRT8 (11758188_x_at) / Fold change /veh KRT8 (11758188_x_at) / RFU NKD1 (11759106_at) / Fold change /veh NKD1 (11759106_at) / RFU SRD5A1 (11742802_a_at) / Fold change /veh SRD5A1 (11742802_a_at) / RFU TPSAB1 /// TPSB2 (11721975_s_at) / Fold change /veh TPSAB1 /// TPSB2 (11721975_s_at) / RFU GSTM3 (11746129_a_at) / Fold change /veh GSTM3 (11746129_a_at) / RFU IL23R (11737362_x_at) / Fold change /veh IL23R (11737362_x_at) / RFU TMEM51 (11727254_a_at) / Fold change /veh TMEM51 (11727254_a_at) / RFU PIWIL2 (11732686_x_at) / Fold change /veh PIWIL2 (11732686_x_at) / RFU ORM1 (11744905_x_at) / Fold change /veh ORM1 (11744905_x_at) / RFU CCDC152 (11743942_at) / Fold change /veh CCDC152 (11743942_at) / RFU ECM1 (11717891_a_at) / Fold change /veh ECM1 (11717891_a_at) / RFU IL23R (11748794_a_at) / Fold change /veh IL23R (11748794_a_at) / RFU TNFAIP8L3 (11732012_x_at) / Fold change /veh TNFAIP8L3 (11732012_x_at) / RFU MBOAT4 (11741988_at) / Fold change /veh MBOAT4 (11741988_at) / RFU 11764193_at / Fold change /veh 11764193_at / RFU TMEM53 (11763286_at) / Fold change /veh TMEM53 (11763286_at) / RFU MAGEB2 (11727129_at) / Fold change /veh MAGEB2 (11727129_at) / RFU TMEM200A (11744735_a_at) / Fold change /veh TMEM200A (11744735_a_at) / RFU CCDC152 (11751479_a_at) / Fold change /veh CCDC152 (11751479_a_at) / RFU FAM211A (11726209_a_at) / Fold change /veh FAM211A (11726209_a_at) / RFU RGS16 (11746705_a_at) / Fold change /veh RGS16 (11746705_a_at) / RFU VCAN (11755009_s_at) / Fold change /veh VCAN (11755009_s_at) / RFU RHOB (11743442_s_at) / Fold change /veh RHOB (11743442_s_at) / RFU RGS16 (11720943_a_at) / Fold change /veh RGS16 (11720943_a_at) / RFU RGS16 (11720944_at) / Fold change /veh RGS16 (11720944_at) / RFU, VPS4B / Fold change vs veh, VPS4B / RFU, CREB1 / Fold change vs veh, CREB1 / RFU, DNAJC13 / Fold change vs veh, DNAJC13 / RFU, GNAQ / Fold change vs veh, GNAQ / RFU, CDK5R1 / Fold change vs veh, CDK5R1 / RFU, ZRANB3 / Fold change vs veh, ZRANB3 / RFU, CUL4A / Fold change vs veh, CUL4A / RFU, CCNY / Fold change vs veh, CCNY / RFU, UFL1 / Fold change vs veh, UFL1 / RFU, COG3 / Fold change vs veh, COG3 / RFU, DIAPH2 / Fold change vs veh, DIAPH2 / RFU, SKA2 / Fold change vs veh, SKA2 / RFU, AFF3 / Fold change vs veh, AFF3 / RFU, LMF1 / Fold change vs veh, LMF1 / RFU, IPO11 / Fold change vs veh, IPO11 / RFU, DFFB / Fold change vs veh, DFFB / RFU, FOXP1 / Fold change vs veh, FOXP1 / RFU, CARD8 / Fold change vs veh, CARD8 / RFU, STRN3 / Fold change vs veh, STRN3 / RFU, ADK / Fold change vs veh, ADK / RFU, RASSF2 / Fold change vs veh, RASSF2 / RFU, WIPF1 / Fold change vs veh, WIPF1 / RFU, LARP1B / Fold change vs veh, LARP1B / RFU, RASA1 / Fold change vs veh, RASA1 / RFU, RB1 / Fold change vs veh, RB1 / RFU, PPFIA1 / Fold change vs veh, PPFIA1 / RFU, MAT2A / Fold change vs veh, MAT2A / RFU, CCT5 / Fold change vs veh, CCT5 / RFU, WDR92 / Fold change vs veh, WDR92 / RFU, CUX1 / Fold change vs veh, CUX1 / RFU, TTC7A / Fold change vs veh, TTC7A / RFU, TMEM135 / Fold change vs veh, TMEM135 / RFU, DEPTOR / Fold change vs veh, DEPTOR / RFU, CPM / Fold change vs veh, CPM / RFU, DNAJB6 / Fold change vs veh, DNAJB6 / RFU, CACNA2D3 / Fold change vs veh, CACNA2D3 / RFU, DTX4 / Fold change vs veh, DTX4 / RFU, TFCP2 / Fold change vs veh, TFCP2 / RFU, GMCL1 /// GMCL1P1 / Fold change vs veh, GMCL1 /// GMCL1P1 / RFU, AEBP2 / Fold change vs veh, AEBP2 / RFU, SNHG1 /// SNORD22 /// SNORD25 /// SNORD26 /// SNORD27 /// SNORD28 /// SNORD29 /// SNORD31 / Fold change vs veh, SNHG1 /// SNORD22 /// SNORD25 /// SNORD26 /// SNORD27 /// SNORD28 /// SNORD29 /// SNORD31 / Fold change (Aza/veh), C12orf56 (ProbeSet 11735607_a_at) / Fold change (ACY-1035/veh), C12orf56 (ProbeSet 11735607_a_at) / Fold change (Aza/veh), FGFR1OP (ProbeSet 11751329_s_at) / Fold change (ACY-1035/veh), FGFR1OP (ProbeSet 11751329_s_at) / Fold change (Aza/veh), VPS36 (ProbeSet 11739960_a_at) / Fold change (ACY-1035/veh), VPS36 (ProbeSet 11739960_a_at) / RFU SYPL1 (11715823_x_at) / Fold change /veh SYPL1 (11715823_x_at) / RFU IGFBP7 (11715501_s_at) / Fold change /veh IGFBP7 (11715501_s_at) / RFU REEP3 (11722064_at) / Fold change /veh REEP3 (11722064_at) / RFU IGLL1 (11728026_x_at) / Fold change /veh IGLL1 (11728026_x_at): dose or concentration left out as unconfirmed
Conditions: MV-4-11 cells, 48 hours

## Nc1ccc(-c2cccs2)cc1NC(=O)c1ccc2c(c1)cc(C1CC1)n2CCN1CCOCC1 [ACY-1035]
  RFU JSRP1 (11732532_at): 43.67 RFU
